In patent publication US20020058288A1, “TOXOPLASMA GONDII GLYCOCONJUGATES” (priority 1995, published 2002):

What was measured:
[1] = system: binding of mAb T54E10 to the n-butanol species; assay: ELISA inhibition-binding study, mAb T54E10 on n-butanol fraction GPI species; parameters: species or system mouse
Experimental: The GPI species of the n-butanol fraction were coated on microtiter wells at a coat concentration which corresponds to 10^6 tachyzoites per well. […] Ethanolamine (10 mM) itself was able to inhibit the binding of mAb T54E10 by 50%. All other compounds tested were not able to inhibit the binding of the monoclonal antibody. However, the binding of human anti-Toxoplasma antibodies was not affected by any of the compounds tested.
FIG. 6: Inhibition ELISA: Inhibition ELISA using glycolipids contained in the butanol phase as antigen and mAb T54E10

the trypanosome = settings: cited from earlier work

NCCO [Ethanolamine]
Inhibition of the binding of mAb T54E10 ([1]; 10 mM): 50%

NCCOP(=O)(O)O [ethanolamine-phosphate]
Inhibition of binding of mAb T54E10 to n-butanol species ([1]; coat corresponding to 10^6 tachyzoites per well, FIG. 6): inhibited

CCCOCCCCCCCCCC(=O)O [10-(propoxy) decanoic acid]
Toxicity to the trypanosome (the trypanosome): selective toxicity
